Tested on: spontaneously hypertensive rats (SHR)
Test: Hypotensive effect after oral administration, tail-cuff method
Type: in vivo, rat
Conditions: SHR (male), 32 mg/kg body weight, 5 hours after administration vs before
Protocol: Each of the casein hydrolysate powders prepared in Example and Comparative Examples shown in Table 1 were administered orally to five 27-week-old spontaneously hypertensive rats (SHR) (male) at a dose of 32 mg/kg body weight. Blood pressure was measured before the administration and 5 hours after the administration by tail-cuff method with Tail-cuff PB-98 (manufacture by SOFTRON) to evaluate the change in blood pressure. As a control, casein was administered instead of the powders, and the same evaluation was made. Before the measurement of blood pressure, rats were warmed in a preheat box (manufactured by CSI JAPAN) at 45° C. for 8 minutes.
Further, in accordance with the above method, a dose-dependent hypotensive effect was tested using the casein hydrolysate powders prepared in Example 1.

Substance: casein [Control]
- Blood pressure drop (average ± SD): −2.5 ± 7.5
- Blood pressure drop (average ± SD) (listed as casein): no change in blood pressure was observed

From US8580557B2, “Casein hydrolyzate, process for producing the same and use thereof” (Calpis Co., Ltd., priority 2003, dated 2013)
